Measurements taken from patent publication EP0061283A1, “Antiviral agents, their preparation and use” (BEECHAM GROUP PLC, priority 1981, dated 1982).
Values joined by “and” are separate entries in the source; they are usually repeats but may differ in a detail not shown here. Identical values can stand only once.

Experiments:
[1] = system: Herpes simplex type 1 virus (HFEM strain); assay: Plaque reduction test in virus-infected Vero cell monolayers; assay type: cell-based; details: Human alphaherpesvirus 1, 144 h, concentration causing a 50% reduction in the number of virus plaques, Vero cells, 37°C for 6 days, read-out: PDD50 (the source's name)
Procedure: (§1) Vero (African Green Monkey Kidney) cells were grown to confluence in 6 well multidishes, each well being 3.5 cm in diameter. The cells were incubated with Herpes simplex type 1 virus (HFEM strain) and overlaid with 0.5 ml of 0.9% agarose (w/v) in maintenance medium containing the test compound at a range of concentrations from 50 µg/ml in half-log dilution steps. The virus infected cultures were then incubated at 37°C for 6 days before fixing in 4% formaldehyde solution and staining with carbolfuchsin. The dishes were then examined to find what concentration of test compound causing a 50% reduction in the number of virus plaques formed (PDD50 value) and the minimum concentration of test compound which killed the cell monolayer, leaving a clear zone devoid of cells and virus plaques (MTD).

[2] = Minimum concentration killing the cell monolayer (MTD) in the plaque reduction test; assay type: cell-based, African Green Monkey; details: monkey; minimum concentration which killed the cell monolayer; Vero cells, 37°C for 6 days
Procedure: as §1

| Structure (SMILES) | IC50 [1] | MCC at 144 h [2] |
| --- | --- | --- |
| CC(=O)O[C@H]1C[C@H](n2cc(/C=C/Br)c(=O)[nH]c2=O)O[C@@H]1CO [Example 6, 3'-O-Acetyl-E-5-(2-bromovinyl)-2'-deoxyuridine] | 0.41 µg/mL and 1.1 µM | > 100 µg/mL |
| CCCCC(=O)OC[C@H]1O[C@@H](n2cc(/C=C/Br)c(=O)[nH]c2=O)C[C@@H]1OC(=O)CCCC [Example 2, E-5-(2-Bromovinyl)-3',5'-di-O-valeryl-2'-deoxyuridine] | 0.2 µg/mL and 400 nM | > 100 µg/mL |
| CCCCC(=O)O[C@H]1C[C@H](n2cc(/C=C/Br)c(=O)[nH]c2=O)O[C@@H]1CO [Example 7, E-5-(2-Bromovinyl)-3'-O-valeryl-2'-deoxyuridine] | 0.18 µg/mL and 430 nM | > 100 µg/mL |
| CCCC(=O)OC[C@H]1O[C@@H](n2cc(/C=C/Br)c(=O)[nH]c2=O)C[C@@H]1OC(=O)CCC [Example 1, E-5-(2-Bromovinyl)-3',5'-di-O-butyryl-2'-deoxyuridine] | 0.2 µg/mL and 420 nM | > 100 µg/mL |
| CC(=O)OC[C@H]1O[C@@H](n2cc(/C=C/Br)c(=O)[nH]c2=O)C[C@@H]1O [Example 8, 5'-O-Acetyl-E-5-(2-bromovinyl)-2'-deoxyuridine] | 0.32 µg/mL and 850 nM | > 100 µg/mL |
| CCCCC(=O)OC[C@H]1O[C@@H](n2cc(/C=C/Br)c(=O)[nH]c2=O)C[C@@H]1O [Example 9, E-5-(2-Bromovinyl)-5'-O-valeryl-2'-deoxyuridine] | 0.16 µg/mL and 380 nM | > 100 µg/mL |

The next lines start with results.

| IC50 [1] | Structure (SMILES) | MCC at 144 h [2] |
| --- | --- | --- |
| 0.52 µg/mL and 1.3 µM | CC(C)(C)C(=O)OC[C@H]1O[C@@H](n2cc(/C=C/Br)c(=O)[nH]c2=O)C[C@@H]1O [Example 13, E-5-(2-Bromoyinyl)-5'-O-pivaloyl-2'-deoxyuridine] | > 100 µg/mL |
| 0.35 µg/mL and 800 nM | O=C(O)CCC(=O)OC[C@H]1O[C@@H](n2cc(/C=C/Br)c(=O)[nH]c2=O)C[C@@H]1O [Example 12, E-5-(2-bromovinyl)-5'-O-(3-carboxypropionyl)-2'-deoxyuridine] | > 100 µg/mL |
| 8.5 µg/mL and 17 µM | CC(C)(C)C(=O)OC[C@H]1O[C@@H](n2cc(/C=C/Br)c(=O)[nH]c2=O)C[C@@H]1OC(=O)C(C)(C)C [Example 14, E-5-(2-bromovinyl)-3',5'-di-0-pivaloyl-2'-deoxyuridine] | > 100 µg/mL |
| 0.18 µg/mL and 400 nM | O=C(O)CCC(=O)O[C@H]1C[C@H](n2cc(/C=C/Br)c(=O)[nH]c2=O)O[C@@H]1CO [Example 11b, E-5-(2-bromovinyl)-3'-O-(3-carboxypropionyl)-2'-deoxyuridine] | > 100 µg/mL |
| 55 µg/mL and 103 µM | O=C(O)CCC(=O)OC[C@H]1O[C@@H](n2cc(/C=C/Br)c(=O)[nH]c2=O)C[C@@H]1OC(=O)CCC(=O)O [Example 10, E-5-(2-Bromovinyl)-3'.5'-di-O-(3-carboxypropionyl)-2'-deoxyuridine monohydrate] | > 100 µg/mL |
